Data set [1] deals with LX-2. As to the kind of experiment: Downregulation of TGF-beta induced COL1A1 level in human LX-2 cells at 100 uM by Immunoblot analysis. In kind it is functional, cell-based.
Data set [2] concerns LX-2. Put plainly: Downregulation of TGF-beta induced alpha-SMA level in human LX-2 cells at 100 uM by Immunoblot analysis. In kind it is functional, cell-based. In general terms: A western blot detects proteins with antibodies after separation by electrophoresis.
Data set [3] is described as follows: Stability in rat serum measured up to 48 hrs by LC-MS/MS analysis. In kind it is ADME, cell-free.
Data set [4] relates to LX-2. Put plainly: Downregulation of TGF-beta induced SMAD2 phosphorylation level in human LX-2 cells at 100 uM by Immunoblot analysis. In kind it is functional, cell-based.
In data set [5] the test system is LX-2. Put plainly: Downregulation of TGF-beta induced P65 phosphorylation level in human LX-2 cells at 100 uM by Immunoblot analysis. Format: functional, cell-based.
Data set [6] relates to LX-2. As to the kind of experiment: Antifibrotic activity against TGF-beta1 stimulated human LX-2 cells assessed as reduction in COL1A1 expression at 100 uM incubated for 24 hrs by Western blotting analysis. In kind it is functional, cell-based.
A further data set is filed under the species Homo sapiens. Put plainly: Inhibition of TGF-beta induced his tagged human SMAD2/human SMAD4 interaction at 100 uM incubated for 1 hr followed by anti-His-HRP addition and measured after 1 hr by blocking assay relative to control. As to conditions: time 2.0 hrs.
In data set [7] the test system is LX-2. As to the kind of experiment: Antifibrotic activity against TGF-beta1 stimulated human LX-2 cells assessed as reduction in alpha-SMA expression at 100 uM incubated for 24 hrs by Western blotting analysis. In kind it is functional, cell-based.
For data set [8], the system named is Mus musculus. Put plainly: Anti-fibrotic activity against CCl4-induced liver fibrosis male C57BL/6J mouse model assessed as effect on SMAD3 phosphorylation in liver at 400 microg/kg, ip measured for 3 weeks by Western blot analysis. As to conditions: dose 400.0 µg/kg. In kind it is functional, organism-based.
The test system of data set [9] is LX-2. Put plainly: Inhibition of TGF-beta induced SMAD1/5/8 phosphorylation level in human LX-2 cells at 100 uM by Western blot analysis. Format: functional, cell-based.
Data set [10] deals with LX-2. Put plainly: Inhibition of TGF-beta induced SMAD3 phosphorylation level in human LX-2 cells at 100 uM by Western blot analysis. Format: functional, cell-based.
For data set [11], the system named is Mus musculus. Put plainly: Anti-fibrotic activity against CCl4-induced liver fibrosis male C57BL/6J mouse model assessed as effect on SMAD1/5/8 phosphorylation in liver at 400 microg/kg, ip measured for 3 weeks by Western blot analysis. As to conditions: dose 400.0 µg/kg. In kind it is functional, organism-based.

The results in this text go back to ChEMBL document CHEMBL6177985, “Discovery of Novel Cyclic Peptides as SMAD2-SMAD4 Interaction Inhibitors for the Treatment of Hepatic Fibrosis” (J Med Chem, 2025).

Activity calls are given as the source filed them. No cut-off for these calls is given here.

For orientation: inhibition means the relative decrease from the control value, in per cent.

With `C[C@H](NC(=O)[C@@H]1CCCN1C(=O)[C@H](CCCNC(=N)N)NC(=O)[C@@H](N)[C@@H](C)O)C(=O)N[C@@H](CO)C(=O)N[C@H](Cc1ccccc1)C(=O)N[C@@H](Cc1c[nH]c2ccccc12)C(=O)N[C@@H](CCC(=O)O)C(=O)N[C@H](C(=O)N[C@@H](CO)C(=O)O)[C@@H](C)O`, the result in the data set with LX-2 [1], in the data set on LX-2 [2], in the data set on LX-2 [4], with LX-2 [5], with LX-2 [6] and in the data set on LX-2 [7] was Active. In data set [3], the Stability result is recorded as “Stable”. In addition, in the data set listed under Homo sapiens, the inhibition was 71.3%.
`C[C@@H]1NC(=O)[C@@H]2CCCN2C(=O)[C@H](CCCNC(=N)N)NC(=O)[C@H]([C@@H](C)O)NC(=O)[C@H](CO)NC(=O)[C@H]([C@@H](C)O)NC(=O)[C@H](CCC(=O)O)NC(=O)[C@H](Cc2c[nH]c3ccccc23)NC(=O)[C@H](Cc2ccccc2)NC(=O)[C@@H](CO)NC1=O`: the outcome with LX-2 [6] and with LX-2 [7] was Active. Besides, the inhibition in the data set filed under Homo sapiens worked out at 27.9%.
Regarding `C[C@@H]1NC(=O)[C@@H]2CCCN2C(=O)[C@H](CCCNC(=N)N)NC(=O)[C@H]([C@@H](C)O)NC(=O)[C@H](CO)NC(=O)[C@H]([C@@H](C)O)NC(=O)[C@H](CCC(=O)O)NC(=O)[C@H](Cc2c[nH]c3ccccc23)NC(=O)[C@H](Cc2ccccc2)NC(=O)[C@H](CO)NC1=O`, the Activity result in the data set with LX-2 [6] and in the data set with LX-2 [7] was “Active; Compound Showed Marginal Reduction Compared To M10” in each case. The inhibition in the data set filed under Homo sapiens was determined as 42.7%.
As for `C[C@H](NC(=O)[C@@H]1CCCN1C(=O)[C@H](CCCNC(=N)N)NC(=O)[C@@H](N)[C@@H](C)O)C(=O)N[C@@H](CO)C(=O)N[C@@H](Cc1ccccc1)C(=O)N[C@@H](Cc1c[nH]c2ccccc12)C(=O)N[C@@H](CCC(=O)O)C(=O)N[C@H](C(=O)N[C@@H](CO)C(=O)O)[C@@H](C)O`, the result in the data set with Mus musculus [8] and with Mus musculus [11] was inactive. For the same compound, the inhibition result with LX-2 [9] and with LX-2 [10] was “inactive” in each case. The outcome in the data set with LX-2 [6] and in the data set with LX-2 [7] was Active. For the same compound, the inhibition in the data set listed under Homo sapiens came out at 52.5%.
For `C[C@H](NC(=O)[C@@H]1CCCN1C(=O)[C@H](CCCNC(=N)N)NC(=O)[C@@H](N)[C@@H](C)O)C(=O)N[C@H](CO)C(=O)N[C@@H](Cc1ccccc1)C(=O)N[C@@H](Cc1c[nH]c2ccccc12)C(=O)N[C@@H](CCC(=O)O)C(=O)N[C@H](C(=O)N[C@@H](CO)C(=O)O)[C@@H](C)O`, the result with LX-2 [6] and with LX-2 [7] was Active. The compound also came in with an inhibition in the data set listed under Homo sapiens of 60.5%.
Ac-TRPASFWETS-OH: the result in the data set with LX-2 [6] and in the data set with LX-2 [7] was inactive. For the same compound, the inhibition in the data set listed under Homo sapiens was found to be 51.9%.
Take H-ARPASFWETS-OH: the outcome in the data set with LX-2 [6] and with LX-2 [7] was inactive. The inhibition in the data set filed under Homo sapiens stood at 12.5%.
As for H-TAPASFWETS-OH, the result in the data set on LX-2 [6] and in the data set on LX-2 [7] was inactive. The same compound registered an inhibition in the data set listed under Homo sapiens of 8.6%.
As to H-TRAASFWETS-OH, the result in the data set with LX-2 [6] and in the data set on LX-2 [7] was inactive. In the data set listed under Homo sapiens, this compound showed an inhibition of 16.3%.
Regarding H-TRPAAFWETS-OH, the outcome in the data set with LX-2 [6] and in the data set on LX-2 [7] was Active. The compound further came in with an inhibition in the data set listed under Homo sapiens of 46.2%.
On to H-TRPADFWETS-OH, for which the result in the data set on LX-2 [6] and in the data set with LX-2 [7] was inactive. Besides, the inhibition in the data set filed under Homo sapiens was found to be 6.1%.
Regarding H-TRPAEFWETS-OH, the outcome in the data set on LX-2 [6] and with LX-2 [7] was inactive. Besides, in the data set listed under Homo sapiens, the inhibition was 24.2%.
As for H-TRPAFFWETS-OH, the outcome in the data set on LX-2 [6] and in the data set on LX-2 [7] was inactive. The same compound came in with an inhibition in the data set listed under Homo sapiens of 34.7%.
H-TRPAKFWETS-OH: the outcome with LX-2 [6] and in the data set with LX-2 [7] was inactive. The inhibition in the data set filed under Homo sapiens was found to be 32.5%.
Turning to H-TRPANFWETS-OH, the outcome in the data set with LX-2 [6] and with LX-2 [7] was inactive. Besides, in the data set filed under Homo sapiens, the inhibition stood at 42.6%.
Turning to H-TRPAQFWETS-OH, the outcome in the data set on LX-2 [6] and in the data set with LX-2 [7] was inactive. The inhibition in the data set listed under Homo sapiens came to 31.9%.
Regarding H-TRPARFWETS-OH, the result in the data set with LX-2 [6] and in the data set on LX-2 [7] was inactive. This compound also had an inhibition in the data set filed under Homo sapiens of 17.4%.
Consider H-TRPASAWETS-OH, for which the result with LX-2 [6] and in the data set with LX-2 [7] was Active. The compound further came in with an inhibition in the data set filed under Homo sapiens of 52.7%.
Take H-TRPASDWETS-OH: the outcome in the data set on LX-2 [6] and with LX-2 [7] was inactive. In the data set listed under Homo sapiens, the inhibition was 23.6%.
Regarding H-TRPASEWETS-OH, the outcome in the data set with LX-2 [6] and in the data set with LX-2 [7] was inactive. The same compound returned an inhibition in the data set listed under Homo sapiens of 10.9%.
Regarding H-TRPASFAETS-OH, the result in the data set with LX-2 [6] and in the data set on LX-2 [7] was inactive. This compound showed an inhibition in the data set listed under Homo sapiens of 6.5%.
For H-TRPASFWATS-OH, the outcome in the data set with LX-2 [6] and in the data set with LX-2 [7] was inactive. Besides, the inhibition in the data set filed under Homo sapiens turned out to be 11.2%.
Turning to H-TRPASFWEAS-OH, the outcome in the data set on LX-2 [6] and with LX-2 [7] was inactive. This compound registered an inhibition in the data set filed under Homo sapiens of 9.3%.
In the case of H-TRPASFWETA-OH, the outcome in the data set on LX-2 [6] and with LX-2 [7] was inactive. For the same compound, in the data set listed under Homo sapiens, the inhibition turned out to be 14.5%.
In the case of H-TRPASFWETS-NH2, the outcome in the data set on LX-2 [6] and in the data set on LX-2 [7] was inactive. The inhibition in the data set filed under Homo sapiens was determined as 49.8%.
As for H-TRPASKWETS-OH, the outcome with LX-2 [6] and with LX-2 [7] was inactive. In the data set listed under Homo sapiens, this compound displayed an inhibition of 35.2%.
Turning to H-TRPASNWETS-OH, the outcome with LX-2 [6] and in the data set with LX-2 [7] was inactive. This compound returned an inhibition in the data set filed under Homo sapiens of 31.3%.
As for H-TRPASQWETS-OH, the outcome in the data set on LX-2 [6] and with LX-2 [7] was inactive. This compound also displayed an inhibition in the data set listed under Homo sapiens of 32.4%.
For the compound H-TRPASRWETS-OH, the result in the data set on LX-2 [6] and in the data set with LX-2 [7] was inactive. Further, the inhibition in the data set filed under Homo sapiens amounted to 27.1%.
As for H-TRPASWWETS-OH, the outcome in the data set on LX-2 [6] and with LX-2 [7] was inactive. Besides, the inhibition in the data set listed under Homo sapiens came to 43.8%.
On to H-TRPASYWETS-OH, for which the outcome with LX-2 [6] and in the data set on LX-2 [7] was inactive. In the data set filed under Homo sapiens, this compound displayed an inhibition of 20.7%.
In the case of H-TRPAWFWETS-OH, the result in the data set with LX-2 [6] and in the data set with LX-2 [7] was inactive. In the data set filed under Homo sapiens, this compound returned an inhibition of 21.3%.
